The results in this text go back to patent US20220402914A1, “Tryptoline-Based Benzothiazoles and their use as Antibiotics and Antibiotic Resistance-Modifying Agents” (The Regents of the University of Colorado, a body corporate, priority 2019, published 2022).

For one data set, the system named is HeLa cells. The data set can be described thus: GI50 against HeLa cells, Cell Titer Glo viability assay. Conditions: 24 h. It counts as cell-based, human. On the procedure: (§1) RMA activity of the analogues was tested by assessing their abilities to sensitize MRSA to the antibiotic cefazolin (a first-generation cephalosporin). The well characterized strain MRSA ATCC BAA-44 was tested as previously described. […] The minimal inhibitory concentration (MIC), or the lowest concentration at which S. aureus is considered susceptible to an antibacterial, was determined by the standard broth microdilution method detailed in the CLSI handbook. RMA activity was compared by the ratio of MIC/MRC. The half growth inhibitory concentration (GI50) of each analogue against HeLa cells was determined as previously described. […] The luminescence of each sample was recorded in an Envision Multilabel Plate Reader (Perkin Elmer). Results of MICs and MRCs were confirmed by testing in triplicate. The GI50 assay was performed in duplicate.

A further data set concerns MRSA ATCC BAA-44. The data set can be described thus: Minimal inhibitory concentration (MIC), standard broth microdilution. The settings on record: for MIC: Staphylococcus aureus, MRSA BAA-44 strain, read-out: MIC; for concentration that inhibited the growth of MRSA BAA-44 on average (antibiotic controls): antibiotic alone; for MIC (in words): MRSA BAA-44. The class given is cell-based, Staphylococcus aureus. As for the experimental part:
as §1

Values after ≈ are worked out from the molar mass of the structure shown. Values joined by “and” are separate entries in the source; they are usually repeats but may differ in a detail not shown here. Equal entries are not always repeated.

Consider `FC(F)(F)c1cc(Br)cc2sc(N3CCc4c([nH]c5ccc(Cl)cc45)C3)nc12` [Compound 4ag, 2-[6-Bromo-4-(trifluoromethyl)-1,3-benzothiazol-2-yl]-6-chloro-2,3,4,9-tetrahydro-1H-pyrido[3,4-b]indole], for which the GI50 with HeLa cells came to 5.9 µg/mL (≈ 12.1 µM). The MIC with MRSA ATCC BAA-44 came to 4 µg/mL (≈ 8.22 µM).

In the case of `CO/N=C(\C(=O)N[C@@H]1C(=O)N2C(C(=O)O)=C(COC(N)=O)CS[C@H]12)c1ccco1` [Cefuroxime, reference compound], in the data set with MRSA ATCC BAA-44, the “concentration that inhibited the growth of MRSA BAA-44 on average (antibiotic controls)” value was 128 µg/mL and 256 µg/mL.

Turning to `NCCOc1cc(Cl)c2nc(N3CCc4c([nH]c5ccc(Cl)cc45)C3)sc2c1` [Compound 4ab, 2-((4-Chloro-2-(6-chloro-1,3,4,9-tetrahydro-2H-pyrido[3,4-b]indol-2-yl)benzo[d]thiazol-6-yl)oxy)ethan-1-amine], the MIC in the data set on MRSA ATCC BAA-44 amounted to 8 µg/mL (≈ 18.5 µM).

For `Clc1ccc2[nH]c3c(c2c1)CCN(c1nc2c(Cl)cc(Br)cc2s1)C3` [Compound 4ac, 2-(6-Bromo-4-chloro-1,3-benzothiazol-2-yl)-6-chloro-2,3,4,9-tetrahydro-1H-pyrido[3,4-b]indole], the GI50 with HeLa cells is 22 µg/mL (≈ 48.5 µM). In addition, the MIC with MRSA ATCC BAA-44 was greater than 32 µg/mL.

For `N=CNCC1CN(c2nc3ccc(Cl)cc3s2)Cc2[nH]c3ccc(Cl)cc3c21` (racemic) [Compound 12f, N-((6-chloro-2-(6-chlorobenzo[d]thiazol-2-yl)-2,3,4,9-tetrahydro-1H-pyrido[3,4-b]indol-4-yl)methyl)formimidamide], the GI50 in the data set with HeLa cells is 3.8 µg/mL (≈ 8.83 µM). Also, the MIC in the data set with MRSA ATCC BAA-44 is 4 µg/mL (≈ 9.29 µM).

With `Clc1ccc2nc(N3CCc4c([nH]c5cccc(Cl)c45)C3)sc2c1` [Compound 4f, 5-Chloro-2-(6-chloro-1,3-benzothiazol-2-yl)-2,3,4,9-tetrahydro-1H-pyrido[3,4-b]indole], the MIC in the data set on MRSA ATCC BAA-44 is greater than 16 µg/mL.

With `Cl.NCCSCC1CN(c2nc3ccc(Cl)cc3s2)Cc2[nH]c3ccc(Cl)cc3c21` (racemic) [Compound 12a, 2-(((6-Chloro-2-(6-chlorobenzo[d]thiazol-2-yl)-2,3,4,9-tetrahydro-1H-pyrido[3,4-b]indol-4-yl)methyl)thio)ethan-1-amine hydrochloride], the GI50 with HeLa cells was determined as 3.8 µg/mL.

The compound `OCC1CN(c2nc3ccc(Cl)cc3s2)Cc2[nH]c3ccc(Cl)cc3c21` (racemic) [Compound 10, (6-Chloro-2-(6-chlorobenzo[d]thiazol-2-yl)-2,3,4,9-tetrahydro-1H-pyrido[3,4-b]indol-4-yl)methanol] returned a GI50 with HeLa cells of 10.8 µg/mL (≈ 26.7 µM).

For the compound `C[N+](C)(C)CC1CN(c2nc3ccc(Cl)cc3s2)Cc2[nH]c3ccc(Cl)cc3c21.[I-]` (racemic) [Compound 12d, 1-(6-Chloro-2-(6-chlorobenzo[d]thiazol-2-yl)-2,3,4,9-tetrahydro-1H-pyrido[3,4-b]indol-4-yl)-N,N,N-trimethylmethanaminium iodide], the minimal inhibitory concentration (MIC) with MRSA ATCC BAA-44 was 8 µg/mL.

For `CN(C)CC1CN(c2nc3ccc(Cl)cc3s2)Cc2[nH]c3ccc(Cl)cc3c21` (racemic) [Compound 12c, 1-(6-Chloro-2-(6-chlorobenzo[d]thiazol-2-yl)-2,3,4,9-tetrahydro-1H-pyrido[3,4-b]indol-4-yl)-N,N-Dimethylmethanamine], in the data set with HeLa cells, the GI50 is 5.2 µg/mL (≈ 12.1 µM). For the same compound, the MIC with MRSA ATCC BAA-44 came out at 2 µg/mL (≈ 4.64 µM).

Consider `Clc1ccc2nc(N3CCc4c([nH]c5ccc(Br)cc45)C3)sc2c1` [Compound 4j, 6-Bromo-2-(6-chloro-1,3-benzothiazol-2-yl)-2,3,4,9-tetrahydro-1H-pyrido[3,4-b]indole], for which the MIC in the data set on MRSA ATCC BAA-44 worked out at 4 µg/mL (≈ 9.55 µM).

The compound `Cl.Nc1cc(C(F)(F)F)c2nc(N3CCc4c([nH]c5ccc(Cl)cc45)C3)sc2c1` [Compound 4ah, 2-(6-Chloro-1,3,4,9-tetrahydro-2H-pyrido[3,4-b]indol-2-yl)-4-(trifluoromethyl)-1,3-benzothiazol-6-aminium chloride] registered a GI50 in the data set on HeLa cells of 32 µg/mL. In the data set on MRSA ATCC BAA-44, the MIC worked out at 16 µg/mL.

`Cl.NCC(=O)Nc1cc(Cl)c2nc(N3CCc4c([nH]c5ccc(Cl)cc45)C3)sc2c1` [Compound 4ae, 2-amino-N-(4-chloro-2-(6-chloro-1,3,4,9-tetrahydro-2H-pyrido[3,4-b]indol-2-yl)benzo[d]thiazol-6-yl)acetamide hydrochloride]: the GI50 in the data set on HeLa cells amounted to 14.8 µg/mL. For the same compound, the “MIC (in words)” value against MRSA ATCC BAA-44 is reported as “excellent MICs”.

With `Cc1nnc(SCC2=C(C(=O)O)N3C(=O)[C@@H](NC(=O)Cn4cnnn4)[C@H]3SC2)s1` [Cefazolin, reference compound], in the data set on MRSA ATCC BAA-44, the “concentration that inhibited the growth of MRSA BAA-44 on average (antibiotic controls)” value is 128 µg/mL and 256 µg/mL.

As for `S=C(Nc1ccc(Cl)cc1)N1CCc2c([nH]c3ccc(Cl)cc23)C1` [Compound 5a, 6-Chloro-N-(4-chlorophenyl)-1,3,4,9-tetrahydro-2H-pyrido[3,4-b]indole-2-carbothioamide], the minimal inhibitory concentration (MIC) in the data set with MRSA ATCC BAA-44 came out at 4 µg/mL (≈ 10.6 µM).

Turning to `NCCNCC1CN(c2nc3ccc(Cl)cc3s2)Cc2[nH]c3ccc(Cl)cc3c21` (racemic) [Compound 12e, N1-((6-chloro-2-(6-chlorobenzo[d]thiazol-2-yl)-2,3,4,9-tetrahydro-1H-pyrido[3,4-b]indol-4-yl)methyl)ethane-1,2-diamine], the GI50 with HeLa cells came out at 2.4 µg/mL (≈ 5.38 µM).

The compound `Cl.NCCNc1cc(C(F)(F)F)c2nc(N3CCc4c([nH]c5ccc(Cl)cc45)C3)sc2c1` [Compound 4aj, N1-(2-(6-chloro-1,3,4,9-tetrahydro-2H-pyrido[3,4-b]indol-2-yl)-4-(trifluoromethyl)benzo[d]thiazol-6-yl)ethane-1,2-diamine hydrochloride] gave a GI50 in the data set on HeLa cells of 7.4 µg/mL. Moreover, in the data set on MRSA ATCC BAA-44, the “MIC (in words)” value is reported as “excellent MICs”.

In the data set with HeLa cells, `Oc1cc(Cl)c2nc(N3CCc4c([nH]c5ccc(Cl)cc45)C3)sc2c1` [Compound 4aa, 4-Chloro-2-(6-chloro-1,3,4,9-tetrahydro-2H-pyrido[3,4-b]indol-2-yl)-1,3-benzothiazol-6-ol] showed a GI50 of 5.5 µg/mL (≈ 14.1 µM). Further, the MIC in the data set with MRSA ATCC BAA-44 is greater than 32 µg/mL.

The compound `COCOCC1CN(c2nc3ccc(Cl)cc3s2)Cc2[nH]c3ccc(Cl)cc3c21` (racemic) [Compound 11, 6-Chloro-2-(6-chloro-4-((methoxymethoxy)methyl)-1,3,4,9-tetrahydro-2H-pyrido[3,4-b]indol-2-yl)benzo[d]thiazole] yielded a GI50 with HeLa cells of 7.0 µg/mL (≈ 15.6 µM).

In the case of `Clc1ccc2[nH]c3c(c2c1)CCN(c1nc2c(Cl)c(Cl)c(Cl)cc2s1)C3` [Compound 4y, 6-Chloro-2-(4,5,6-trichloro-1,3-benzothiazol-2-yl)-2,3,4,9-tetrahydro-1H-pyrido[3,4-b]indole], the GI50 in the data set with HeLa cells came out at 11.7 µg/mL (≈ 26.4 µM). For the same compound, in the data set on MRSA ATCC BAA-44, the “MIC (in words)” value is “excellent MICs” and the MIC is 2 µg/mL (≈ 4.51 µM).

As for `FC(F)(F)c1cccc(NC(=S)N2CCc3c([nH]c4ccc(Cl)cc34)C2)c1` [Compound 5c, 6-Chloro-N-[3-(trifluoromethyl)phenyl]-1,3,4,9-tetrahydro-2H-pyrido[3,4-b]indole-2-carbothioamide], the MIC in the data set on MRSA ATCC BAA-44 turned out to be 2 µg/mL (≈ 4.88 µM).

For `NCC1CN(c2nc3ccc(Cl)cc3s2)Cc2[nH]c3ccc(Cl)cc3c21` (racemic) [Compound 12b, (6-Chloro-2-(6-chlorobenzo[d]thiazol-2-yl)-2,3,4,9-tetrahydro-1H-pyrido[3,4-b]indol-4-yl)methanamine], the GI50 with HeLa cells stood at 1.5 µg/mL (≈ 3.72 µM).

Regarding `Clc1ccc2nc(N3CCc4c([nH]c5c(Cl)cccc45)C3)sc2c1` [Compound 4h, 8-Chloro-2-(6-chloro-1,3-benzothiazol-2-yl)-2,3,4,9-tetrahydro-1H-pyrido[3,4-b]indole], in the data set with MRSA ATCC BAA-44, the MIC is greater than 16 µg/mL.
